According to ChEMBL document CHEMBL6114980, “Single or double lipid-modified ultra-short antimicrobial peptides for treating infections caused by resistant bacteria” (Eur J Med Chem, 2025):

Key:
[1] = Stability in mouse serum assessed as half life measured after 1 hr by HPLC analysis; assay type: ADME, cell-free
[2] = Stability in mouse serum assessed as retention time measured after 1 hr by RP-HPLC analysis; assay type: ADME, cell-free
[3] = Acute toxicity in male BALB/c mouse assessed lethal dose administered as ip dose measured for 7 days; assay type: organism-based; settings: in vivo, time 7 day
[4] = Acute toxicity in male BALB/c mouse assessed appearance of aberrant alveolar morphology at 20 to 30 mg/kg, ip measured after 7 days by H and E staining based analysis; assay type: organism-based; settings: in vivo, 168 h, dose 20-30 mg/kg, time 7 day
[5] = Acute toxicity in male BALB/c mouse assessed appearance of lung congestion at 20 to 30 mg/kg, ip measured after 7 days by H and E staining based analysis; assay type: organism-based; settings: in vivo, 168 h, dose 20-30 mg/kg, time 7 day
[6] = Acute toxicity in male BALB/c mouse assessed effect on lung at 20 to 30 mg/kg, ip measured after 7 days by H and E staining based analysis; assay type: organism-based; settings: in vivo, 168 h, dose 20-30 mg/kg, time 7 day
[7] = Acute toxicity in male BALB/c mouse assessed infiltration of inflammatory cells in kidney at 20 to 30 mg/kg, ip measured after 7 days by H and E staining based analysis; assay type: organism-based; settings: in vivo, 168 h, dose 20-30 mg/kg, time 7 day
[8] = Acute toxicity in male BALB/c mouse assessed infiltration of inflammatory cells in spleen at 20 to 30 mg/kg, ip measured after 7 days by H and E staining based analysis; assay type: organism-based; settings: in vivo, 168 h, dose 20-30 mg/kg, time 7 day
[9] = Acute toxicity in male BALB/c mouse assessed appearance of augmented alveolar interstitial space at 20 to 30 mg/kg, ip measured after 7 days by H and E staining based analysis; assay type: organism-based; settings: in vivo, 168 h, dose 20-30 mg/kg, time 7 day
[10] = Acute toxicity in male BALB/c mouse assessed effect on liver at 20 to 30 mg/kg, ip measured after 7 days by H and E staining based analysis; assay type: organism-based; settings: in vivo, 168 h, dose 20-30 mg/kg, time 7 day
[11] = Acute toxicity in male BALB/c mouse assessed infiltration of inflammatory cells at 20 to 30 mg/kg, ip measured after 7 days by H and E staining based analysis; assay type: organism-based; settings: in vivo, 168 h, dose 20-30 mg/kg, time 7 day

CC(C)CCCCC(=O)N[C@@H](CCN)C(=O)N[C@H](C(=O)N[C@@H](CCN)C(=O)N[C@H]1CCNC(=O)[C@H]([C@@H](C)O)NC(=O)[C@H](CCN)NC(=O)[C@H](CCN)NC(=O)[C@H](CC(C)C)NC(=O)[C@@H](Cc2ccccc2)NC(=O)[C@H](CCN)NC1=O)[C@@H](C)O.CC[C@H](C)CCCCC(=O)N[C@@H](CCN)C(=O)N[C@H](C(=O)N[C@@H](CCN)C(=O)N[C@H]1CCNC(=O)[C@H]([C@@H](C)O)NC(=O)[C@H](CCN)NC(=O)[C@H](CCN)NC(=O)[C@H](CC(C)C)NC(=O)[C@@H](Cc2ccccc2)NC(=O)[C@H](CCN)NC1=O)[C@@H](C)O
half-life [1]: 10.5 h | Retention_time [2]: 13.545 min | LD50 at 168 h [3]: 23.6 mg/kg | Activity [4]: Toxic | Activity [5]: Toxic | Activity [6]: Toxic | Activity [7]: Non-toxic | Activity [8]: Non-toxic | Activity [9]: Toxic | Activity [10]: Toxic | Activity [11]: Toxic
